Laboratory results reported in BindingDB's records for doi:10.7270/Q24Q7SF3 (Burnham Center For Chemical Genomics, 2010).

These compounds were tested against T1, Alkaline phosphatase, tissue-nonspecific isozyme (Homo sapiens, UniProt P05186) (assay: TNAP enzyme activators, dose response, selectivity assay for human IAP activator project, biochemical, TNAP isozyme, human IAP uHTS hits (AID 488886)).
T1 sequence (P05186 whole entry): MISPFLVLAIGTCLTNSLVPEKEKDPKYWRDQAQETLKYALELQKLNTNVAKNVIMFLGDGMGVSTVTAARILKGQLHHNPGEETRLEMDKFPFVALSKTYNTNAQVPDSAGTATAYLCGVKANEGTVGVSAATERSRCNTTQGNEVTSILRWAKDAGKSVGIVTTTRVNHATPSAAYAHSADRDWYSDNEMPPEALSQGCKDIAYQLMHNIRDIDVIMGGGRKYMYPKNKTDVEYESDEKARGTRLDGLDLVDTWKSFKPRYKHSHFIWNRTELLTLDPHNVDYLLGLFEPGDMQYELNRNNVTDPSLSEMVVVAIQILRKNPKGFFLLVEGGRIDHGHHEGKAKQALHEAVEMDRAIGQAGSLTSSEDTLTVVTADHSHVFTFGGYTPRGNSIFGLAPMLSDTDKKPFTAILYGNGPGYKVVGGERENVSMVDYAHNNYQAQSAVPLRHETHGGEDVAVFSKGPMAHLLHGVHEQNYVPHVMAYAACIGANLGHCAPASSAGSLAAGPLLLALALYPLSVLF

`O=c1c2ccccc2nc(N=NCc2c(O)ccc3ccccc23)n1O` [SMR000145705] was tested. Which EC50 did it give?
The EC50 was > 100 µM.

`CCOC(=O)c1c(C)[nH]c(C(=O)N/N=C/C2C=C([N+](=O)[O-])C=CC2=O)c1C` (stereo not drawn) [ethyl 2,4-dimethyl-5-[[[(E)-(3-nitro-6-oxocyclohexa-2,4-dien-1-ylidene)methyl]amino]carbamoyl]-1H-pyrrole-3-carboxylate] was tested. Which EC50 did it give?
Its EC50 is 22.3 µM.

For `C=c1[nH]n(-c2nc3ccccc3[nH]2)c(=O)c1=CN(C)C` [(4E)-2-(1H-benzimidazol-2-yl)-4-(dimethylaminomethylidene)-5-methyl-pyrazol-3-one], which EC50 is on record?
Its EC50 is 11.4 µM.

Which EC50 does the source give for `CCc1ccc(CN=Nc2ncnc3nc[nH]c23)cc1` [MLS000419199] here?
The EC50 was 17.7 µM.

`COc1cccc(C=NNC(=O)c2[nH][nH]c(=O)c2C)c1O` [N'-[(E)-(5-methoxy-6-oxidanylidene-cyclohexa-2,4-dien-1-ylidene)methyl]-4-methyl-5-oxidanylidene-1,4-dihydropyrazole-3-carbohydrazide] was tested. Which EC50 did it give?
Its EC50 is 8.88 µM.

`O=Nc1[nH]c(=O)c(CC(=O)c2ccccc2)nc1NO` [SMR000539633] was tested. Which EC50 did it give?
Its EC50 is > 100 µM.

`Cn1c(C(C#N)C(=O)c2ccc(Br)s2)nc2ccccc21` (stereo not drawn) [MLS001167394] was tested. Which EC50 did it give?
The EC50 was 45 µM.

Which EC50 does the source give for `Cc1cc(Br)ccc1SCC(=O)OCC(=O)C(C#N)c1nc2ccccc2[nH]1` (stereo not drawn) [2-[(4-bromo-2-methylphenyl)thio]acetic acid [3-cyano-3-(1,3-dihydrobenzimidazol-2-ylidene)-2-oxopropyl] ester] here?
Its EC50 is 24.1 µM.
